{"source": "ChEMBL document CHEMBL5335843", "about": "“Application of tobramycin benzyl ether as an antibiotic adjuvant capable of sensitizing multidrug-resistant Gram-negative bacteria to rifampicin” (2024)", "type_in_all_cases": "functional", "key": {"Pseudomonas aeruginosa [1]": {"test_system": "Pseudomonas aeruginosa", "assay": "Antibiotic adjuvant activity against Pseudomonas aeruginosa PAO1 assessed as fold increase in MIC incubated for 18 hrs in presence of rifampicin and CAMHB Mg2+ media by two fold broth microdilution checkerboard assay"}, "Escherichia coli [2]": {"test_system": "Escherichia coli", "assay": "Antibacterial activity against multi-drug resistant Escherichia coli clinical isolate EC107115 assessed as inhibition of bacterial growth incubated for 18 hrs by two fold broth microdilution assay"}, "Escherichia coli [3]": {"test_system": "Escherichia coli", "assay": "Antibiotic adjuvant activity against multi-drug resistant Escherichia coli clinical isolate 94474 assessed as rifampicin MIC incubated for 18 hrs in presence of Rifampicin by two fold broth microdilution checkerboard assay"}, "Escherichia coli [4]": {"test_system": "Escherichia coli", "assay": "Antibiotic adjuvant activity against multi-drug resistant Escherichia coli clinical isolate 94474 assessed as inhibition of bacterial growth incubated for 18 hrs in presence of Rifampicin by two fold broth microdilution checkerboard assay"}, "Escherichia coli [5]": {"test_system": "Escherichia coli", "assay": "Antibacterial activity against multi-drug resistant Escherichia coli clinical isolate 94393 assessed as inhibition of bacterial growth incubated for 18 hrs by two fold broth microdilution assay"}, "Enterococcus faecium [6]": {"test_system": "Enterococcus faecium", "assay": "Antibiotic adjuvant activity against Enterococcus faecium 128149 assessed as fractional inhibitory concentration index incubated for 18 hrs in presence of rifampicin by two fold broth microdilution checkerboard assay"}, "Pseudomonas aeruginosa [7]": {"test_system": "Pseudomonas aeruginosa", "assay": "Antibiotic adjuvant activity against Pseudomonas aeruginosa PAO1 assessed as fold potentiation incubated for 18 hrs in presence of minocycline by two fold broth microdilution checkerboard assay"}, "Pseudomonas aeruginosa [8]": {"test_system": "Pseudomonas aeruginosa", "assay": "Antibiotic adjuvant activity against multi-drug resistant Pseudomonas aeruginosa clinical isolate PA101243 assessed as doxycycline MIC incubated for 18 hrs in presence of doxycycline by two fold broth microdilution checkerboard assay"}, "Escherichia coli [9]": {"test_system": "Escherichia coli", "assay": "Antibiotic adjuvant activity against Escherichia coli ATCC 25922 assessed as fold potentiation incubated for 18 hrs in presence of rifampicin and CAMHB Na+ media by two fold broth microdilution checkerboard assay"}, "Pseudomonas aeruginosa [10]": {"test_system": "Pseudomonas aeruginosa", "assay": "Antibiotic adjuvant activity against Pseudomonas aeruginosa PAO1 assessed as fold potentiation incubated for 18 hrs in presence of Rifampicin by two fold broth microdilution checkerboard assay"}, "Staphylococcus aureus": {"test_system": "Staphylococcus aureus", "assay": "Antibacterial activity against methicilin-resistant Staphylococcus aureus assessed as inhibition of bacterial growth incubated for 18 hrs by two fold broth microdilution assay"}, "Pseudomonas aeruginosa [11]": {"test_system": "Pseudomonas aeruginosa", "assay": "Antibiotic adjuvant activity against multi-drug resistant Pseudomonas aeruginosa clinical isolate PA259 assessed as fold potentiation incubated for 18 hrs in presence of minocycline by two fold broth microdilution checkerboard assay"}, "Acinetobacter baumannii [12]": {"test_system": "Acinetobacter baumannii", "assay": "Antibacterial activity against multi-drug resistant Acinetobacter baumannii clinical isolate AB027 assessed as inhibition of bacterial growth incubated for 18 hrs by two fold broth microdilution assay"}, "Escherichia coli [13]": {"test_system": "Escherichia coli", "assay": "Antibiotic adjuvant activity against multi-drug resistant Escherichia coli clinical isolate 107115 assessed as inhibition of bacterial growth incubated for 18 hrs in presence of Rifampicin by two fold broth microdilution checkerboard assay"}, "Acinetobacter baumannii [14]": {"test_system": "Acinetobacter baumannii", "assay": "Antibiotic adjuvant activity against Acinetobacter baumannii ATCC 17978 assessed as fold potentiation at 8 to 16 ug/ml incubated for 18 hrs in presence of rifampicin and FBS media by two fold broth microdilution checkerboard assay", "details": "dose 8-16 µg/ml"}, "Escherichia coli [15]": {"test_system": "Escherichia coli", "assay": "Antibiotic adjuvant activity against multi-drug resistant Escherichia coli clinical isolate 94393 assessed as fold potentiation incubated for 18 hrs in presence of Rifampicin by two fold broth microdilution checkerboard assay"}, "Acinetobacter baumannii [16]": {"test_system": "Acinetobacter baumannii", "assay": "Antibiotic adjuvant activity against multi-drug resistant Acinetobacter baumannii clinical isolate LAC-4 assessed as fractional inhibitory concentration index incubated for 18 hrs in presence of Rifampicin by two fold broth microdilution checkerboard assay"}, "Pseudomonas aeruginosa [17]": {"test_system": "Pseudomonas aeruginosa", "assay": "Antibiotic adjuvant activity against multi-drug resistant Pseudomonas aeruginosa clinical isolate PA262 assessed as fractional inhibitory concentration index incubated for 18 hrs in presence of doxycycline by two fold broth microdilution checkerboard assay"}, "Acinetobacter baumannii [18]": {"test_system": "Acinetobacter baumannii", "assay": "Antibiotic adjuvant activity against multi-drug resistant Acinetobacter baumannii clinical isolate 92247 assessed as rifampicin MIC incubated for 18 hrs in presence of Rifampicin by two fold broth microdilution checkerboard assay"}, "Pseudomonas aeruginosa [19]": {"test_system": "Pseudomonas aeruginosa", "assay": "Antibiotic adjuvant activity against multi-drug resistant Pseudomonas aeruginosa clinical isolate PA259 assessed as fractional inhibitory concentration index incubated for 18 hrs in presence of minocycline by two fold broth microdilution checkerboard assay"}, "Acinetobacter baumannii [20]": {"test_system": "Acinetobacter baumannii", "assay": "Antibiotic adjuvant activity against multi-drug resistant Acinetobacter baumannii clinical isolate AB031 assessed as rifampicin MIC incubated for 18 hrs in presence of Rifampicin by two fold broth microdilution checkerboard assay"}, "Pseudomonas aeruginosa [21]": {"test_system": "Pseudomonas aeruginosa", "assay": "Antibiotic adjuvant activity against multi-drug resistant Pseudomonas aeruginosa clinical isolate PA259 assessed as inhibition of bacterial growth incubated for 18 hrs in presence of Rifampicin by two fold broth microdilution checkerboard assay"}, "Pseudomonas aeruginosa [22]": {"test_system": "Pseudomonas aeruginosa", "assay": "Antibiotic adjuvant activity against multi-drug resistant Pseudomonas aeruginosa clinical isolate PA264 assessed as rifampicin MIC incubated for 18 hrs in presence of Rifampicin by two fold broth microdilution checkerboard assay"}, "Acinetobacter baumannii [23]": {"test_system": "Acinetobacter baumannii", "assay": "Antibiotic adjuvant activity against multi-drug resistant Acinetobacter baumannii clinical isolate AB027 assessed as rifampicin MIC incubated for 18 hrs in presence of Rifampicin by two fold broth microdilution checkerboard assay"}, "Pseudomonas aeruginosa [24]": {"test_system": "Pseudomonas aeruginosa", "assay": "Antibiotic adjuvant activity against Pseudomonas aeruginosa PAO1 assessed as fold potentiation incubated for 18 hrs in presence of doxycycline by two fold broth microdilution checkerboard assay"}, "Acinetobacter baumannii [25]": {"test_system": "Acinetobacter baumannii", "assay": "Antibiotic adjuvant activity against Acinetobacter baumannii ATCC 17978 assessed as minocycline MIC incubated for 18 hrs in presence of minocycline by two fold broth microdilution checkerboard assay"}, "Acinetobacter baumannii [26]": {"test_system": "Acinetobacter baumannii", "assay": "Antibiotic adjuvant activity against Acinetobacter baumannii ATCC 17978 assessed as fold potentiation at 16 ug/ml incubated for 18 hrs in presence of rifampicin and 25 % FBS media by two fold broth microdilution checkerboard assay", "details": "dose 16 µg/ml"}, "Enterococcus faecium [27]": {"test_system": "Enterococcus faecium", "assay": "Antibiotic adjuvant activity against Enterococcus faecium 114278 assessed as inhibition of bacterial growth incubated for 18 hrs in presence of rifampicin by two fold broth microdilution checkerboard assay"}, "Pseudomonas aeruginosa [28]": {"test_system": "Pseudomonas aeruginosa", "assay": "Antibiotic adjuvant activity against multi-drug resistant Pseudomonas aeruginosa clinical isolate PA101243 assessed as minocycline MIC incubated for 18 hrs in presence of minocycline by two fold broth microdilution checkerboard assay"}, "Pseudomonas aeruginosa [29]": {"test_system": "Pseudomonas aeruginosa", "assay": "Antibacterial activity against multi-drug resistant Pseudomonas aeruginosa clinical isolate PA262 assessed as inhibition of bacterial growth incubated for 18 hrs by two fold broth microdilution assay"}, "Pseudomonas aeruginosa [30]": {"test_system": "Pseudomonas aeruginosa", "assay": "Antibiotic adjuvant activity against multi-drug resistant Pseudomonas aeruginosa clinical isolate PA262 assessed as fractional inhibitory concentration index incubated for 18 hrs in presence of minocycline by two fold broth microdilution checkerboard assay"}, "Pseudomonas aeruginosa [31]": {"test_system": "Pseudomonas aeruginosa", "assay": "Antibiotic adjuvant activity against multi-drug resistant Pseudomonas aeruginosa clinical isolate PA264 assessed as fractional inhibitory concentration index incubated for 18 hrs in presence of doxycycline by two fold broth microdilution checkerboard assay"}, "Pseudomonas aeruginosa [32]": {"test_system": "Pseudomonas aeruginosa", "assay": "Antibacterial activity against multi-drug resistant Pseudomonas aeruginosa clinical isolate PA114228 assessed as inhibition of bacterial growth incubated for 18 hrs by two fold broth microdilution assay"}, "Pseudomonas aeruginosa [33]": {"test_system": "Pseudomonas aeruginosa", "assay": "Antibiotic adjuvant activity against multi-drug resistant Pseudomonas aeruginosa clinical isolate PA101243 assessed as fractional inhibitory concentration index incubated for 18 hrs in presence of doxycycline by two fold broth microdilution checkerboard assay"}, "Escherichia coli [34]": {"test_system": "Escherichia coli", "assay": "Antibiotic adjuvant activity against multi-drug resistant Escherichia coli clinical isolate EC94474 assessed as fold potentiation incubated for 18 hrs in presence of minocycline by two fold broth microdilution checkerboard assay"}}, "data": [{"smiles": "Cl.NC[C@H]1O[C@H](O[C@H]2[C@H](OCc3ccccc3)[C@@H](O[C@H]3O[C@H](COCc4ccccc4)[C@@H](OCc4ccccc4)[C@H](N)[C@H]3OCc3ccccc3)[C@H](N)C[C@@H]2N)[C@H](N)C[C@@H]1OCc1ccccc1", "values": [{"measurement": "fold change (FC)", "setting": "Pseudomonas aeruginosa [1]", "value": ">=2"}, {"measurement": "MIC", "setting": "Escherichia coli [2]", "value": 32, "unit": "µg/mL"}, {"measurement": "MIC", "setting": "Escherichia coli [3]", "value": 0.031, "unit": "µg/mL"}, {"measurement": "MIC", "setting": "Escherichia coli [4]", "value": 4, "unit": "µg/mL"}, {"measurement": "MIC", "setting": "Escherichia coli [5]", "value": 32, "unit": "µg/mL"}, {"measurement": "fractional inhibitory concentration index (FICI)", "setting": "Enterococcus faecium [6]", "value": 1.5}, {"measurement": "fold change (FC)", "setting": "Pseudomonas aeruginosa [7]", "value": 64}, {"measurement": "MIC", "setting": "Pseudomonas aeruginosa [8]", "value": "> 128", "unit": "µg/mL"}, {"measurement": "fold change (FC)", "setting": "Escherichia coli [9]", "value": 512}, {"measurement": "fold change (FC)", "setting": "Pseudomonas aeruginosa [10]", "value": 8}, {"measurement": "MIC", "setting": "Staphylococcus aureus", "value": 16, "unit": "µg/mL"}, {"measurement": "fold change (FC)", "setting": "Pseudomonas aeruginosa [11]", "value": 1}, {"measurement": "MIC", "setting": "Acinetobacter baumannii [12]", "value": 64, "unit": "µg/mL"}, {"measurement": "MIC", "setting": "Escherichia coli [13]", "value": 2, "unit": "µg/mL"}, {"measurement": "fold change (FC)", "setting": "Acinetobacter baumannii [14]", "value": 4}, {"measurement": "fold change (FC)", "setting": "Escherichia coli [15]", "value": 1}, {"measurement": "fractional inhibitory concentration index (FICI)", "setting": "Acinetobacter baumannii [16]", "value": 0.251}, {"measurement": "fractional inhibitory concentration index (FICI)", "setting": "Pseudomonas aeruginosa [17]", "value": 1.063}, {"measurement": "MIC", "setting": "Acinetobacter baumannii [18]", "value": 0.008, "unit": "µg/mL"}, {"measurement": "fractional inhibitory concentration index (FICI)", "setting": "Pseudomonas aeruginosa [19]", "value": 1.063}, {"measurement": "MIC", "setting": "Acinetobacter baumannii [20]", "value": 0.002, "unit": "µg/mL"}, {"measurement": "MIC", "setting": "Pseudomonas aeruginosa [21]", "value": 8, "unit": "µg/mL"}, {"measurement": "MIC", "setting": "Pseudomonas aeruginosa [22]", "value": 16, "unit": "µg/mL"}, {"measurement": "MIC", "setting": "Acinetobacter baumannii [23]", "value": 0.004, "unit": "µg/mL"}, {"measurement": "fold change (FC)", "setting": "Pseudomonas aeruginosa [24]", "value": 4}, {"measurement": "MIC", "setting": "Acinetobacter baumannii [25]", "value": "≤ 4", "unit": "µg/mL"}, {"measurement": "fold change (FC)", "setting": "Acinetobacter baumannii [26]", "value": 32}, {"measurement": "MIC", "setting": "Enterococcus faecium [27]", "value": 4, "unit": "µg/mL"}, {"measurement": "MIC", "setting": "Pseudomonas aeruginosa [28]", "value": 64, "unit": "µg/mL"}, {"measurement": "MIC", "setting": "Pseudomonas aeruginosa [29]", "value": 128, "unit": "µg/mL"}, {"measurement": "fractional inhibitory concentration index (FICI)", "setting": "Pseudomonas aeruginosa [30]", "value": 1.063}, {"measurement": "fractional inhibitory concentration index (FICI)", "setting": "Pseudomonas aeruginosa [31]", "value": 1.063}, {"measurement": "MIC", "setting": "Pseudomonas aeruginosa [32]", "value": 64, "unit": "µg/mL"}, {"measurement": "fractional inhibitory concentration index (FICI)", "setting": "Pseudomonas aeruginosa [33]", "value": 1.063}, {"measurement": "fold change (FC)", "setting": "Escherichia coli [34]", "value": 64}]}]}
